± gives the expanded uncertainty stated by the source.
Assay: xn = mol fraction of the nth substance listed
Details: Liquid, Vibrating tube method

Cc1ccccc1 [toluene] + CCCO
mass density [kg/m3]
Details	x2 = 0	x2 = 0.125	x2 = 0.25	x2 = 0.375	x2 = 0.5	x2 = 0.625	x2 = 0.75	x2 = 0.875
293.15 K, 100 kPa	867.1 ± 1	860.6 ± 1	854.5 ± 1	848.1 ± 1	841.2 ± 1	833.5 ± 1	825.1 ± 1	815.3 ± 1
293.15 K, 5000 kPa	870.6 ± 1	864.1 ± 1	858.2 ± 1	851.7 ± 1	844.7 ± 1	837 ± 1	828.7 ± 1	818.9 ± 1
293.15 K, 10000 kPa	874.2 ± 1	867.7 ± 1	861.7 ± 1	855.1 ± 1	848.4 ± 1	840.6 ± 1	832.3 ± 1	822.6 ± 1
293.15 K, 15000 kPa	877.6 ± 1	871.2 ± 1	865.2 ± 1	858.6 ± 1	851.8 ± 1	844.1 ± 1	835.8 ± 1	826.1 ± 1
293.15 K, 20000 kPa	881.1 ± 1	874.5 ± 1	868.5 ± 1	861.9 ± 1	855.1 ± 1	847.4 ± 1	839.2 ± 1	829.4 ± 1
293.15 K, 25000 kPa	884.2 ± 1	877.8 ± 1	871.7 ± 1	865.1 ± 1	858.3 ± 1	850.6 ± 1	842.4 ± 1	832.6 ± 1
293.15 K, 30000 kPa	887.3 ± 1	880.9 ± 1	874.9 ± 1	868.3 ± 1	861.5 ± 1	853.7 ± 1	845.4 ± 1	835.7 ± 1
293.15 K, 35000 kPa	890.3 ± 1	883.9 ± 1	877.9 ± 1	871.3 ± 1	864.5 ± 1	856.7 ± 1	848.4 ± 1	838.7 ± 1
293.15 K, 40000 kPa	893.3 ± 1	886.9 ± 1	880.9 ± 1	874.2 ± 1	867.4 ± 1	859.7 ± 1	851.3 ± 1	841.7 ± 1.1
293.15 K, 45000 kPa	896.1 ± 1	889.7 ± 1	883.7 ± 1	877.1 ± 1	870.3 ± 1	862.6 ± 1	854.1 ± 1.1	844.4 ± 1.1
293.15 K, 50000 kPa	898.9 ± 1	892.5 ± 1	886.5 ± 1	879.9 ± 1	873.1 ± 1	865.3 ± 1.1	856.9 ± 1.1	847.2 ± 1.1
293.15 K, 55000 kPa	901.6 ± 1	895.2 ± 1	889.2 ± 1	882.6 ± 1	875.7 ± 1.1	868 ± 1.1	859.6 ± 1.1	849.7 ± 1.1
293.15 K, 60000 kPa	904.2 ± 1	897.9 ± 1	891.8 ± 1	885.2 ± 1.1	878.3 ± 1.1	870.6 ± 1.1	862.1 ± 1.1	852.3 ± 1.1
293.15 K, 65000 kPa	906.7 ± 1	900.5 ± 1	894.4 ± 1.1	887.7 ± 1.1	880.9 ± 1.1	873.1 ± 1.1	864.7 ± 1.1	854.8 ± 1.1
303.15 K, 100 kPa	857.5 ± 1	851.1 ± 1	845 ± 1	838.6 ± 1	832 ± 1	824.4 ± 1	816.1 ± 1	806.6 ± 1
303.15 K, 5000 kPa	861.4 ± 1	855 ± 1	848.9 ± 1	842.4 ± 1	835.9 ± 1	828.3 ± 1	820.1 ± 1	810.6 ± 1
303.15 K, 10000 kPa	865.1 ± 1	858.8 ± 1	852.7 ± 1	846.2 ± 1	839.8 ± 1	832.2 ± 1	824 ± 1	814.3 ± 1
303.15 K, 15000 kPa	869 ± 1	862.4 ± 1	856.4 ± 1	849.9 ± 1	843.4 ± 1	835.8 ± 1	827.8 ± 1	818.3 ± 1
303.15 K, 20000 kPa	872.4 ± 1	866 ± 1	859.9 ± 1	853.4 ± 1	846.9 ± 1	839.4 ± 1	831.3 ± 1	821.7 ± 1
303.15 K, 25000 kPa	875.8 ± 1	869.4 ± 1	863.3 ± 1	856.8 ± 1	850.4 ± 1	842.8 ± 1	834.6 ± 1	825.2 ± 1
303.15 K, 30000 kPa	879 ± 1	872.6 ± 1	866.6 ± 1	860.1 ± 1	853.5 ± 1	846 ± 1	837.7 ± 1	828.3 ± 1
303.15 K, 35000 kPa	882.1 ± 1	875.8 ± 1	869.8 ± 1	863.3 ± 1	856.7 ± 1	849.2 ± 1	840.8 ± 1	831.4 ± 1
303.15 K, 40000 kPa	885.2 ± 1	878.9 ± 1	872.8 ± 1	866.4 ± 1	859.7 ± 1	852.3 ± 1	843.9 ± 1.1	834.4 ± 1.1
303.15 K, 45000 kPa	888.2 ± 1	881.8 ± 1	875.6 ± 1	869.3 ± 1	862.6 ± 1	855.1 ± 1.1	846.9 ± 1.1	837.3 ± 1.1
303.15 K, 50000 kPa	891.1 ± 1	884.8 ± 1	878.5 ± 1	872.2 ± 1.1	865.5 ± 1.1	858 ± 1.1	849.7 ± 1.1	840.1 ± 1.1
303.15 K, 55000 kPa	894 ± 1	887.6 ± 1	881.4 ± 1.1	875.1 ± 1.1	868.6 ± 1.1	860.9 ± 1.1	852.5 ± 1.1	843 ± 1.1
303.15 K, 60000 kPa	896.7 ± 1	890.3 ± 1.1	884.1 ± 1.1	877.8 ± 1.1	871.1 ± 1.1	863.6 ± 1.1	855.2 ± 1.1	845.6 ± 1.1
303.15 K, 65000 kPa	899.2 ± 1	893 ± 1.1	886.7 ± 1.1	880.4 ± 1.1	873.7 ± 1.1	866.1 ± 1.1	857.8 ± 1.1	848.2 ± 1.1
313.15 K, 100 kPa	847.8 ± 1	841.3 ± 1	835.1 ± 1	829 ± 1	822.4 ± 1	815.2 ± 1	807.3 ± 1	797.9 ± 1
313.15 K, 5000 kPa	852 ± 1	845.5 ± 1	839.3 ± 1	833.1 ± 1	826.6 ± 1	819.3 ± 1	811.5 ± 1	802.1 ± 1
313.15 K, 10000 kPa	856.1 ± 1	849.6 ± 1	843.4 ± 1	837.2 ± 1	830.7 ± 1	823.4 ± 1	815.5 ± 1	806.2 ± 1
313.15 K, 15000 kPa	859.9 ± 1	853.6 ± 1	847.4 ± 1	841.2 ± 1	834.7 ± 1	827.5 ± 1	819.3 ± 1	810 ± 1
313.15 K, 20000 kPa	863.5 ± 1	857.3 ± 1	851.1 ± 1	844.9 ± 1	838.4 ± 1	831.2 ± 1	823 ± 1	813.6 ± 1
313.15 K, 25000 kPa	867.1 ± 1	860.9 ± 1	854.7 ± 1	848.5 ± 1	841.9 ± 1	834.7 ± 1	826.5 ± 1	817.1 ± 1
313.15 K, 30000 kPa	870.5 ± 1	864.3 ± 1	858.1 ± 1	851.9 ± 1	845.4 ± 1	838.1 ± 1	829.9 ± 1	820.5 ± 1
313.15 K, 35000 kPa	873.8 ± 1	867.6 ± 1	861.5 ± 1	855.3 ± 1	848.7 ± 1	841.4 ± 1	833.2 ± 1	823.7 ± 1.1
313.15 K, 40000 kPa	877 ± 1	870.8 ± 1	864.7 ± 1	858.4 ± 1	851.9 ± 1	844.6 ± 1.1	836.4 ± 1.1	826.9 ± 1.1
313.15 K, 45000 kPa	880.2 ± 1	874 ± 1	867.8 ± 1	861.6 ± 1.1	855 ± 1.1	847.7 ± 1.1	839.4 ± 1.1	830 ± 1.1
313.15 K, 50000 kPa	883.3 ± 1	876.9 ± 1	870.8 ± 1.1	864.5 ± 1.1	857.9 ± 1.1	850.6 ± 1.1	842.5 ± 1.1	833 ± 1.1
313.15 K, 55000 kPa	886.2 ± 1	879.9 ± 1.1	873.8 ± 1.1	867.5 ± 1.1	860.9 ± 1.1	853.5 ± 1.1	845.3 ± 1.1	835.9 ± 1.1
313.15 K, 60000 kPa	889 ± 1.1	882.7 ± 1.1	876.6 ± 1.1	870.4 ± 1.1	863.7 ± 1.1	856.3 ± 1.1	848.2 ± 1.1	838.7 ± 1.1
313.15 K, 65000 kPa	891.8 ± 1.1	885.5 ± 1.1	879.3 ± 1.1	873.1 ± 1.1	866.5 ± 1.1	859.1 ± 1.1	850.9 ± 1.1	841.4 ± 1.1
323.15 K, 100 kPa	838.4 ± 1	831.7 ± 1	825.5 ± 1	819.3 ± 1	812.9 ± 1	805.9 ± 1	798.2 ± 1	789.3 ± 1
323.15 K, 5000 kPa	842.7 ± 1	836.2 ± 1	829.9 ± 1	823.8 ± 1	817.3 ± 1	810.3 ± 1	802.6 ± 1	793.6 ± 1
323.15 K, 10000 kPa	847 ± 1	840.5 ± 1	834.3 ± 1	828 ± 1	821.6 ± 1	814.5 ± 1	806.9 ± 1	797.9 ± 1
323.15 K, 15000 kPa	851.1 ± 1	844.5 ± 1	838.4 ± 1	832.2 ± 1	825.8 ± 1	818.7 ± 1	810.9 ± 1	801.8 ± 1
323.15 K, 20000 kPa	855 ± 1	848.5 ± 1	842.3 ± 1	836.1 ± 1	829.7 ± 1	822.6 ± 1	814.8 ± 1	805.7 ± 1
323.15 K, 25000 kPa	858.9 ± 1	852.2 ± 1	846.1 ± 1	839.9 ± 1	833.5 ± 1	826.3 ± 1	818.6 ± 1	809.5 ± 1
323.15 K, 30000 kPa	862.5 ± 1	855.9 ± 1	849.7 ± 1	843.5 ± 1	837.1 ± 1	829.9 ± 1	822.2 ± 1	813 ± 1

From the NIST ThermoML archive (doi:10.1016/j.fluid.2006.05.032)
